From ChEMBL document CHEMBL1132029, “Specific, uncompetitive inhibition of beta-galactosidases by a 5,6-isopropylidenedioxyfuro[2,3-d]isoxazole-3-methanol derivative” (Bioorg Med Chem Lett, 1999)
The source made the active and inactive calls. The calls are words filed in the database; no cut-off is given here.

Legend:
[1] = molecular target: T1, Beta-galactosidase (Aspergillus niger) (UniProt P29853); test: Inhibitory activity against beta-galactosidase from Aspergillus niger at a concentration of 1 mM; No activity
T1 sequence (whole entry): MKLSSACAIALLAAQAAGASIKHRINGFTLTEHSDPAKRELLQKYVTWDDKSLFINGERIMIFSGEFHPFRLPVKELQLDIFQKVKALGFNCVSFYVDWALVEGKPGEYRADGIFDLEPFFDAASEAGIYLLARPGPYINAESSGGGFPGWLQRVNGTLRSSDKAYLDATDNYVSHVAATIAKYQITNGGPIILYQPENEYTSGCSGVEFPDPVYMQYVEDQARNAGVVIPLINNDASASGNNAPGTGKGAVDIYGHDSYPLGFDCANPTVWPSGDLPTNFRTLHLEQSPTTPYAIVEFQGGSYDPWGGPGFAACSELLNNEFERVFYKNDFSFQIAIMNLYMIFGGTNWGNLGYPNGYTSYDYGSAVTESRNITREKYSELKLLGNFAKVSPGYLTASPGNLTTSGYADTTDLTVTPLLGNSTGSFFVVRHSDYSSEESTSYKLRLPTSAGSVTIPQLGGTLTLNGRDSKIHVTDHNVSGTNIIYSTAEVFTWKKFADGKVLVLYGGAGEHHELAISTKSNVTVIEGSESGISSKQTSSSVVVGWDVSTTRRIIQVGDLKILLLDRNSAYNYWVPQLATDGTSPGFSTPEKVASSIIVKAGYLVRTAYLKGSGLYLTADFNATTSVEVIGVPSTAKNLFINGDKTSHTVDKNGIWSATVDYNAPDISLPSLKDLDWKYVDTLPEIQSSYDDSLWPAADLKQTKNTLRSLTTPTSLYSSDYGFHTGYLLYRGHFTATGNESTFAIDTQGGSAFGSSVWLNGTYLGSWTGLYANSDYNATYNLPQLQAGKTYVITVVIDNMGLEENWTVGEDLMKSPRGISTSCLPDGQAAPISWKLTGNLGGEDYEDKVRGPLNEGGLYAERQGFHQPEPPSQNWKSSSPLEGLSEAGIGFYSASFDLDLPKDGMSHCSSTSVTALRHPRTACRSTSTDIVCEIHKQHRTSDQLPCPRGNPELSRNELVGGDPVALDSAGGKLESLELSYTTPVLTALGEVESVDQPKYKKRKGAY

[2] = Inhibitory activity against beta-galactosidase from jack beans at a concentration of 1 mM; No activity; settings: Canavalia ensiformis
[3] = Inhibitory activity against beta-galactosidase from Aspergillus oryzae at a concentration of 1 mM; No activity
[4] = molecular target: Beta-glucosidase A (Caldicellulosiruptor saccharolyticus) (UniProt P10482); test: Inhibitory activity against beta-glucosidase from Caldocellum saccharolyticum at a concentration of 1 mM; No activity
Target sequence in this assay (P10482 whole entry, looked up): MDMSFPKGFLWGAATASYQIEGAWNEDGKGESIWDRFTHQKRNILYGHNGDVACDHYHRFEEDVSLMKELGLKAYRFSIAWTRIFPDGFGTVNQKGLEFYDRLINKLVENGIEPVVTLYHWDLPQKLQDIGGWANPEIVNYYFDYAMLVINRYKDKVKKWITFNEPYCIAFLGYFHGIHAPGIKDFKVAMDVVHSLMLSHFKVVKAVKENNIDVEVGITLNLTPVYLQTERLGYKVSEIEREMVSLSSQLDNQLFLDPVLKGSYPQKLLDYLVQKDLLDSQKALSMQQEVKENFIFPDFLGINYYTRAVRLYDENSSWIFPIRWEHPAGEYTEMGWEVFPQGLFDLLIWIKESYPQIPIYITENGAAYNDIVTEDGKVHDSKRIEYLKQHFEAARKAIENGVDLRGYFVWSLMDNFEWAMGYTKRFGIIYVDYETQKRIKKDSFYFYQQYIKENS

[5] = Inhibitory activity against beta-galactosidase from jack beans […]; No activity; settings: Canavalia ensiformis
[6] = molecular target: Beta-glucosidase A (Caldicellulosiruptor saccharolyticus) (UniProt P10482); test: Inhibitory activity against beta-glucosidase from Caldocellum saccharolyticum at a concentration of 1 mM; No activity
Target sequence in this assay (P10482 whole entry): as the sequence (P10482 whole entry, looked up) above

[7] = Inhibitory activity against rice Alpha-galactosidase at concentration 1 mM
Beta-glucosidase A = Beta-glucosidase A (Caldicellulosiruptor saccharolyticus, UniProt P10482); test: Inhibition of beta-glucosidase from Caldocellum saccharolyticum
Beta-galactosidase = molecular target: T2, Beta-galactosidase (Aspergillus niger, UniProt P29853); test: Inhibition of beta-galactosidase from Aspergillus niger
T2 sequence (P29853 whole entry): T1 sequence (whole entry)

[8] = molecular target: Beta-glucosidase A (Caldicellulosiruptor saccharolyticus) (UniProt P10482); settings: 1 mM
Target sequence in this assay (P10482 whole entry): as the sequence (P10482 whole entry, looked up) above

[9] = molecular target: T1, Beta-galactosidase (Aspergillus niger); settings: 1 mM

Sequence of Beta-glucosidase A (P10482 whole entry): as the sequence (P10482 whole entry, looked up) above

SMILES	Activity [1]	Activity [2]	Activity [3]	Activity [4]	Activity [6]	further results
CCOC(OCC)C1=NO[C@H]2[C@H](O)C(O)O[C@@H]12 (stereo not given in full)	inactive	inactive	inactive	inactive	–	–
CC1(C)O[C@@H]2O[C@H]3C(C4N[C@@H](c5ccccc5)[C@H](c5ccccc5)N4)=NO[C@H]3[C@@H]2O1	inactive	–	inactive	inactive	–	Activity [5]: inactive
COCOCC1=NO[C@H]2[C@@H]3OC(C)(C)O[C@@H]3O[C@@H]12	inactive	inactive	inactive	–	inactive	–
OCC1=NO[C@H]2[C@H](O)C(O)O[C@@H]12 (stereo not given in full)	inactive	inactive	inactive	–	inactive	inhibition [7]: 59%
CC1(C)O[C@H]2O[C@@H]3C(C4N[C@@H](c5ccccc5)[C@H](c5ccccc5)N4)=NO[C@@H]3[C@H]2O1	inactive	inactive	inactive	inactive	–	–
CC1(C)O[C@@H]2O[C@H]3C(CO)=NO[C@H]3[C@@H]2O1	–	–	–	–	–	IC50 (Beta-glucosidase A): 550 µM; Ki (Beta-glucosidase A): 5 µM; IC50 (Beta-galactosidase): 43 µM; Ki (Beta-galactosidase): 18 µM; inhibition [8]: 67%; inhibition [9]: 14%

Now from value to compound, other results behind:

Activity [1]	Activity [2]	Activity [3]	Activity [4]	Activity [6]	SMILES	further results
inactive	inactive	inactive	inactive	–	CC1(C)O[C@@H]2O[C@H]3C(C=O)=NO[C@H]3[C@@H]2O1	–
inactive	inactive	inactive	–	inactive	COCC1=NO[C@H]2[C@@H]3OC(C)(C)O[C@@H]3O[C@@H]12	–
